For one assay, the system named is mononuclear cells. The experiment in a line: Lymphocyte Transformation Test with PWM positive control in the presence of metals (toxicity). Type of assay: cell-based. The conditions noted are these: metals stabilized with citrate. From the text: In this example, each metal tested was stabilized with citrate.
Another assay deals with lymphocytes. The experiment in a line: Lymphocyte Transformation Test for metal sensitivity (stimulation index). Type of assay: cell-based. The conditions noted are these: SI≥4 positive. The text has this: The Lymphocyte Transformation Test used for Metal Sensitivity Testing measures cell proliferation relative to a negative control.

With polkweed mitogen [PWM], the “Stimulation Index for PWM in the presence of 0.1 mM metals” value was 217 with mononuclear cells (Donor LS 23 89053D), 40 in the assay on mononuclear cells (Donor LS 23 89054C), 202 in the assay with mononuclear cells (Donor LS 23 89058C) and 362 with mononuclear cells (Donor LS 23 89063E). Also, the “Stimulation Index” value is recorded as 108.15 in the assay on lymphocytes (Subject 19A, 6 Dec. 2016, assay with citrate); 124 in the assay on lymphocytes (Subject 19A, 15 Jul. 2016, assay without citrate); 75.85 in the assay on lymphocytes (Subject 21R, 3 Feb. 2017, assay with citrate); 223 with lymphocytes (Subject 21R, 19 Jul. 2016, assay without citrate); 691.43 with lymphocytes (Subject 20112, 11 Jan. 2017, assay with citrate); 669.51 in the assay with lymphocytes (Subject 20112, 11 Nov. 2016, assay without citrate). The “Stimulation Index” value amounted to 119.6 in the assay with lymphocytes (Subject 71390, 4 Nov. 2016, assay without citrate) and 128.6 in the assay with lymphocytes (Subject 71390, 11 Jan. 2017, assay with citrate).
